Experimental findings from patent publication US7786298B2, “Compounds and methods for nucleic acid mismatch detection” (California Institute of Technology, priority 2006, dated 2010) are described below.

The experiment relates to oligonucleotides containing a central CC mismatch. Nature of the experiment: Photocleavage testing, denaturing PAGE of 5′-32P-end-labeled oligonucleotides. The format is biochemical. Particulars: duplex 1 μM, Rh 1 μM, 20 mM NaCl, 10 mM NaPi, pH 7.1, 30 min, irradiation 5 min (325-450 nm); fully matched and mismatched oligonucleotides. The method, then: Compounds PEG-RhOG and [Rh(chrysi)(phen)(^PEGbipy)]^3+(i.e., compound A and intermediate 2, respectively, as described above) were used for photocleavage testing. Denaturing PAGE experiments with 5′-32P-end-labeled oligonucleotides containing or lacking a central CC mismatch were employed to test specific site targeting. Duplex DNA (1 μM) was incubated with variable concentrations of compound A (100 nm to 5 μM) for 30 min and then irradiated for 5 min.
Conditions were duplex (1 μM), Rh (1 μM) in 20 mM NaCl, 10 mM NaPi, pH 7.1 for 30 min at ambient temperature followed by irradiation for 5 min with a solar simulator (325-450 nm). Lanes 1, 2, 11, and 12 show Maxam-Gilbert sequencing reactions for matched (1, 2) and mismatched (11, 12) DNA. For matched and mismatched DNA, respectively, lanes 3 and 7 show fragments irradiated with no metal complex; lanes 4 and 8 show fragments with compound A but no irradiation; lanes 5, 6, 9, and 10 show fragments after irradiation in the presence of compound A (5, 9) and intermediate 2 (6, 10). The DNA sequence was 5′-32P-end-labeled-GCGCCGTCGTXCATGTG-3′ (SEQ ID NO:4) where X=C, G with a complement containing a matched or mismatched C at the bold site. The arrow marks the mismatched site.

On to “[Rh(chrysi)(phen)(^PEGbipy)]^3+ [intermediate 2]”, for which the “photocleavage on autoradiogram of denaturing 20% polyacrylamide gel” value is given as “photocleavage”.
